Laboratory results published in ChEMBL document CHEMBL6153042, “Glycoconjugates of adefovir and tenofovir as asialoglycoprotein-mediated Anti-HBV prodrugs with enhanced liver targeting” (Eur J Med Chem, 2025).

Legend:
[1] = Prodrug release in human HepG2 cells assessed as tenofovir release measured over 1 hrs by HPLC analysis; format: ADME, cell-based; conditions: hepg2, 1 h
[2] = Prodrug release in human HepG2 cells assessed as adefovir release measured over 1 hrs by HPLC analysis; format: ADME, cell-based; conditions: hepg2, 1 h
[3] = Prodrug release in human HepG2 cells assessed as tenofovir release by mass spectrometric analysis; format: ADME, cell-based
[4] = Prodrug release in human HepG2 cells assessed as adefovir release by mass spectrometric analysis; format: ADME, cell-based
[5] = Drug metabolism in plasma of Sprague-Dawley rat assessed as hydrolyzed metabolite formation measured after 5 hrs by HPLC analysis; format: ADME, cell-free
[6] = Toxicity in Kunming mouse assessed as effect on heart size at 100 to 200 mg/kg, iv once daily for 5 days; format: organism-based; conditions: in vivo, 120 h, dose 100-200 mg/kg, time 5 day
[7] = Toxicity in Kunming mouse assessed as effect on kidney size at 100 to 200 mg/kg, iv once daily for 5 days; format: organism-based; conditions: in vivo, 120 h, dose 100-200 mg/kg, time 5 day
[8] = Toxicity in Kunming mouse assessed as effect on heart weight at 100 to 200 mg/kg, iv once daily for 5 days; format: organism-based; conditions: in vivo, 120 h, dose 100-200 mg/kg, time 5 day
[9] = Toxicity in Kunming mouse assessed as effect on kidney colour at 100 to 200 mg/kg, iv once daily for 5 days; format: organism-based; conditions: in vivo, 120 h, dose 100-200 mg/kg, time 5 day
[10] = Toxicity in Kunming mouse assessed as effect on liver weight at 100 to 200 mg/kg, iv once daily for 5 days; format: organism-based; conditions: in vivo, 120 h, dose 100-200 mg/kg, time 5 day
[11] = Toxicity in Kunming mouse assessed as histopathological changes in heart at 200 mg/kg, iv once daily for 5 days by H and E staining based analysis; format: organism-based; conditions: in vivo, 120 h, time 5 day
[12] = Cmax in Sprague-Dawley rat at 5 mg/kg, iv by LC-MS analysis; format: ADME, organism-based; conditions: in vivo
[13] = Tmax in Sprague-Dawley rat at 5 mg/kg, iv by LC-MS analysis; format: ADME, organism-based; conditions: in vivo
[14] = AUC (0 to t) in Sprague-Dawley rat at 5 mg/kg, iv by LC-MS analysis; format: ADME, organism-based; conditions: in vivo
[15] = Selectivity index, the ratio of CC50 for human HepG2.2.15 cells to EC50 for antiviral activity against HBV in human HepG2.2.15 cells assessed as inhibition of HBV DNA replication; format: toxicity, cell-based; conditions: read-out: Ratio CC50/EC50
[16] = Tmax in Sprague-Dawley rat at 50 mg/kg, po by LC-MS analysis; format: ADME, organism-based; conditions: in vivo
[17] = AUC (0 to infinity) in Sprague-Dawley rat at 5 mg/kg, iv by LC-MS analysis; format: ADME, organism-based; conditions: in vivo
[18] = Toxicity in Kunming mouse assessed as maximum tolerated dose administered intravenously as once daily dose for 5 days; conditions: in vivo, route iv, time 5 day
[19] = Clearance in Sprague-Dawley rat at 5 mg/kg, iv by LC-MS analysis; format: ADME, organism-based; conditions: in vivo
Hepatitis B virus = assay: Antiviral activity against Hepatitis B virus infected in human HepG2.2.15 cells assessed as inhibition of HBV DNA replication incubated for 10 day by qPCR analysis; format: functional, organism-based; conditions: HepG2.2.15, 240 h
[20] = Toxicity in Kunming mouse assessed as effect on kidney weight at 100 to 200 mg/kg, iv once daily for 5 days; format: organism-based; conditions: in vivo, 120 h, dose 100-200 mg/kg, time 5 day
[21] = Cmax in Sprague-Dawley rat at 50 mg/kg, po by LC-MS analysis; format: ADME, organism-based; conditions: in vivo
[22] = Half-life in Sprague-Dawley rat at 50 mg/kg, po by LC-MS analysis; format: ADME, organism-based; conditions: in vivo
[23] = Toxicity in Kunming mouse assessed as effect on body weight at 100 to 200 mg/kg, iv administered once daily for 5 days; format: organism-based; conditions: in vivo, 120 h, dose 100-200 mg/kg, time 5 day
[24] = Toxicity in Kunming mouse assessed as effect on heart colour at 100 to 200 mg/kg, iv once daily for 5 days; format: organism-based; conditions: in vivo, 120 h, dose 100-200 mg/kg, time 5 day
[25] = Toxicity in Kunming mouse assessed as effect on liver size at 100 to 200 mg/kg, iv once daily for 5 days; format: organism-based; conditions: in vivo, 120 h, dose 100-200 mg/kg, time 5 day
[26] = Cytotoxicity against human HepG2.2.15 cells assessed as inhibition of cell proliferation by CCK8 assay; format: toxicity, cell-based, HepG2 2.2.15
[27] = Half-life in Sprague-Dawley rat at 5 mg/kg, iv by LC-MS analysis; format: ADME, organism-based; conditions: in vivo
LX-2 [28] = assay: Cytotoxicity against human LX2 cells assessed as cell growth inhibition at 10 uM incubated for 48 hrs by CCK8 assay relative to control; format: toxicity, cell-based; conditions: lx-2, 48 h, 10 µM
[29] = AUC (0 to t) in Sprague-Dawley rat at 50 mg/kg, po by LC-MS analysis; format: ADME, organism-based; conditions: in vivo
[30] = Metabolic stability in human liver microsomes assessed as half-life measured upto 60 mins by LC-MS/MS analysis; format: ADME, Microsome
LX-2 [31] = assay: Cytotoxicity against human LX2 cells at 5 uM incubated for 48 hrs by CCK8 assay; format: toxicity, cell-based; conditions: lx-2, 48 h
[32] = Toxicity in Kunming mouse assessed as histopathological changes in kidney at 200 mg/kg, iv once daily for 5 days by H and E staining based analysis; format: organism-based; conditions: in vivo, 120 h, time 5 day
[33] = AUC (0 to infinity) in Sprague-Dawley rat at 50 mg/kg, po by LC-MS analysis; format: ADME, organism-based; conditions: in vivo
[34] = Drug uptake in Sprague-Dawley rat at 50 mg/kg, po or 5 mg/kg, iv measured after 2 to 3 hrs by LC-MS/MS analysis; format: ADME, organism-based; conditions: in vivo, time 2-3 hrs
[35] = Toxicity in Kunming mouse assessed as effect on liver colour at 100 to 200 mg/kg, iv once daily for 5 days; format: organism-based; conditions: in vivo, 120 h, dose 100-200 mg/kg, time 5 day
[36] = Oral bioavailability in Sprague-Dawley rat at 50 mg/kg by LC-MS analysis; format: ADME, organism-based; conditions: in vivo
[37] = Clearance in Sprague-Dawley rat at 50 mg/kg, po by LC-MS analysis; format: ADME, organism-based; conditions: in vivo
[38] = Toxicity in Kunming mouse assessed as histopathological changes in liver at 200 mg/kg, iv once daily for 5 days by H and E staining based analysis; format: organism-based; conditions: in vivo, 120 h, time 5 day
[39] = Metabolic stability in rat liver microsomes assessed as half-life measured upto 60 mins by LC-MS/MS analysis; format: ADME, Microsome

SMILES	Activity [6]	Activity [7]	Activity [8]	Activity [9]	Activity [10]	Activity [11]	Cmax [12] [ng/mL]	Tmax [13] [min]	AUC(0-t) [14] [ng·h/mL]	selectivity ratio [15]	Tmax [16] [min]	AUC(0-inf) [17] [ng·h/mL]	MTD at 120 h [18] [mg/kg]	clearance [19] [mL/min/kg]	EC50 (Hepatitis B virus) [nM]	Activity [20]	Cmax [21] [ng/mL]	half-life [22] [min]	Activity [23]	Activity [24]	further results
CC(=O)N[C@H]1[C@H](OCCCCC(=O)NCCCNC(=O)CCOCC(COCCC(=O)NCCCNC(=O)CCCCO[C@@H]2O[C@H](CO)[C@H](O)[C@@H](O)[C@H]2NC(C)=O)(COCCC(=O)NCCCNC(=O)CCCCO[C@@H]2O[C@H](CO)[C@H](O)[C@@H](O)[C@H]2NC(C)=O)NC(=O)CCC(=O)NCCOCCOCCOCCOCCn2cc(COP(=O)(O)COCCn3cnc4c(N)ncnc43)nn2)O[C@H](CO)[C@H](O)[C@H]1O																					Drug metabolism [1]: metabolite_detected; Drug metabolism [2]: metabolite_detected; Drug metabolism [3]: metabolite_detected; Drug metabolism [4]: metabolite_detected; Drug metabolism [5]: metabolite_notdetected
CC(=O)N[C@H]1[C@H](OCCCCC(=O)NCCOCCOCCOCCOCCn2cc(COP(=O)(CO[C@H](C)Cn3cnc4c(N)ncnc43)OCOC(=O)C(C)(C)C)nn2)O[C@H](CO)[C@H](O)[C@H]1O (stereo not given in full)	Non-toxic	Non-toxic	Non-toxic	Non-toxic	Non-toxic	Non-toxic	2030	1.98	2100	> 468	45	2130	~200	40.7	214	Non-toxic	1500	192	Non-toxic	Non-toxic	Activity [25]: Non-toxic; CC50 [26]: > 100000 nM; half-life [27]: 67.2 min; Activity (LX-2 [28]): Toxic; AUC(0-t) [29]: 4900 ng·h/mL; half-life [30]: 12.4 min; Activity (LX-2 [31]): Toxic; Activity [32]: Non-toxic; AUC(0-inf) [33]: 4930 ng·h/mL; Drug uptake [34]: Not_active; Activity [35]: Non-toxic; bioavailability [36]: 23.4%; CL/F [37]: 172 mL/min/kg; Activity [38]: Non-toxic; half-life [39]: 2.13 min
CC(=O)N[C@H]1[C@H](OCCCCC(=O)NCCOCCOCCOCCOCCn2cc(COP(=O)(COCCn3cnc4c(N)ncnc43)OCOC(=O)C(C)(C)C)nn2)O[C@H](CO)[C@H](O)[C@H]1O (stereo not given in full)	Non-toxic	Non-toxic	Non-toxic	Non-toxic	Non-toxic	Non-toxic	2010	1.98	1990	> 384	40.2	2000	~200	42.1	260	Non-toxic	1290	191	Non-toxic	Non-toxic	Activity [25]: Non-toxic; CC50 [26]: > 100000 nM; half-life [27]: 46.8 min; Activity (LX-2 [28]): Toxic; AUC(0-t) [29]: 3300 ng·h/mL; half-life [30]: 14.9 min; Activity (LX-2 [31]): Toxic; Activity [32]: Non-toxic; AUC(0-inf) [33]: 3310 ng·h/mL; Drug uptake [34]: Not_active; Activity [35]: Non-toxic; bioavailability [36]: 16.6%; CL/F [37]: 252 mL/min/kg; Activity [38]: Non-toxic; half-life [39]: 2.33 min
